In US20080318789A1, “Seed germination acceleration” (priority 2007, published 2008):

System: canola (cv. Westar) seed
Assay: Petri plate germination study of treated canola seed at 6° C.
Assay type: in vivo
Settings: petri plates at 6° C., n = 3 plates of 15 seeds; for Percent germinated Day 5: day 5 after treatment; for Percent germinated Day 6: day 6 after treatment; for Percent germinated Day 7: day 7 after treatment
Procedure: For all seed treatments, 1 ppm active ingredient refers to 1 microgram active ingredient per gram of seed. For these studies, GA3, GA4/7, 6BA or CPPU were each dispensed into a 15 ml centrifuge tube, and 2.5 ml of de-ionized water was then added to each tube. The solution was mixed on a vortex mixer and 0.015 ml of this solution was then placed in another 15 ml. centrifuge tube along with 0.6 grams of canola seeds (cv. Westar). Seeds were mixed by rotating 360° on a Labquake Rotisserie for 30 minutes. To simulate commercial seed treatments, the amount of solutions was just sufficient to wet the seeds. After treating, the seeds were placed in weigh boats for overnight drying. Petri plate studies: Each standard petri plate (100 mm×50 mm) contained 1 blue Anchor germination circle (3¼ inches in diameter) drenched with 8 ml of de-ionized water cooled to 6° C., Each treatment consisted of 3 petri plates of 15 seeds each. After plating, the petri plates were placed in a Nalgene plastic container pre-cooled to 6° C. The plastic container containing the petri plates was placed in a growth chamber at 6° C. with a 16-hour light cycle for the duration of the study. Seeds were visually observed daily for germination as determined by emergence of root from the seed coat. Canola seeds (cv. Westar) were treated with solutions containing GA4/7, GA3, 6BA, or CPPU. The solutions were sufficient only to wet the seeds. The amount of applied GA4/7 ([…]), GA3 (0.5, 5 or 50 ppm), 6BA (5 or 50 ppm), or CPPU (5 or 50 ppm) is expressed as ppm or micrograms of compound per gram of seed.

Compound	Percent germinated Day 5 (seed treatment 5 ppm) [%]	Percent germinated Day 6 (seed treatment 5 ppm) [%]	Percent germinated Day 7 (seed treatment 5 ppm) [%]	Percent germinated Day 5 (seed treatment 50 ppm) [%]	Percent germinated Day 6 (seed treatment 50 ppm) [%]	Percent germinated Day 7 (seed treatment 50 ppm) [%]	Percent germinated Day 5 (seed treatment 0.5 ppm) [%]	Percent germinated Day 6 (seed treatment 0.5 ppm) [%]	Percent germinated Day 7 (seed treatment 0.5 ppm) [%]
c1ccc(CNc2ncnc3nc[nH]c23)cc1 [6BA]	0	0	0	0	0.3	0.3	–	–	–
O=C(Nc1ccccc1)Nc1ccnc(Cl)c1 [CPPU, 1-(2-chloro-4-pyridyl)-3-phenylurea]	0	0	0.3	0	0	0	–	–	–
C=C1C[C@]23C[C@@]1(O)CC[C@H]2[C@@]12C=C[C@H](O)[C@@](C)(C(=O)O1)[C@H]2[C@@H]3C(=O)O [GA3, (1α,2β,4aα,4bβ,10β)-2,4-a,7-trihydroxy-1-methyl-8-methylenegibb-3-ene-1,10-dicarboxylic acid 1,4a-lactone]	0	0.3	0.7	0.3	2.7	5.0	0	0.3	0.3
